Measured values published in patent US20150159131A1, “METHODS AND COMPOSITIONS FOR REGULATING MUSASHI FUNCTION” (Board of Trustees of the University of Arkansas, priority 2011, published 2015).

Experiments:
Assay type in all cases: cell-based, Xenopus
Mos mRNA = assay: Polyadenylation assay of endogenous Mos mRNA (RNA ligation-coupled PCR)
From the text: The increase in PCR product length is specifically due to extension of the poly[A] tail. The primer used to analyze endogenous Xenopus Musashi1 mRNA polyadenylation was [NT] ID NO:24).

[1] = tested on: Musashi1 S322 phosphorylation; assay: Western blot for S322-phosphorylated Musashi1 in oocyte lysates
Protocol: Xenopus oocytes were isolated and cultured. Oocytes were induced to mature with 2 μg/ml progesterone. The rate of germinal vesicle breakdown (GVBD) was scored morphologically by observing the appearance of a white spot on the animal pole. Because oocytes from different frogs mature at different rates in response to progesterone, the culture times were standardized between experiments to the time taken for 50% of oocytes to undergo GVBD. Where indicated, oocytes were pre-treated with 50 μM MEK inhibitor, UO126 or DMSO vehicle for 30 minutes.
Antisera for phosphorylation specific Musashi1 S322 were generated by immunizing rabbits with the peptide VSSYISAAS(phospho)PAPSTGF (SEQ ID NO:26). The antibodies were affinity purified through a peptide-affinity column and used at 1:1000. Abcam antibodies to Musashi1 were used at 1:1000. Sigma Tubulin antibodies were used at 1:20,000. The phospho-specific Cdc2 antibody was used at 1:1000 and detects the inhibitory Tyr15 phosphorylation. The phospho-specific MAP kinase antibody (Cell Signaling) was used at 1:1000 and detects the activating phosphorylations at Thr202/Tyr204. The GST antibody (Santa Cruz) was used at 1:1000. The Xenopus Ringo antibody was used at 1:1000.
Oocytes were lysed in NP40 lysis buffer containing sodium vanadate and a protease inhibitor cocktail. Where indicated, a portion of the lysate was transferred to STAT-60 for RNA extraction. […]

Musashi1 protein = assay: Western blot for endogenous Musashi1 protein accumulation at GVBD50; conditions: at GVBD50, normalized to tubulin, 3 experiments, p<0.01
Protocol: Oocytes were lysed in NP40 lysis buffer containing sodium vanadate and a protease inhibitor cocktail. Where indicated, a portion of the lysate was transferred to STAT-60 for RNA extraction. Protein lysates were then spun, clarified and transferred immediately to 1× sample buffer. The lysates were run on a 10% Nupage gel and transferred to a 0.2 μm-pore-size nitrocellulose filter. The membrane was blocked with 1% bovine serum albumin in TBST for 60 min at room temperature. Following incubation with primary antibody, filters were incubated with horseradish peroxidase conjugated secondary antibody using enhanced chemiluminescence in a Fluorchem 8000 Advanced Imager. To determine if Musashi is regulated by progesterone, Musashi levels were detected in progesterone stimulated oocytes using methods described in Example 1. […] Lysates from oocytes treated with or without progesterone were analyzed by western blot for endogenous Musashi1 protein accumulation at GVBD50. Quantifications of fold changes in Musashi1 levels (as indicated below western) were normalized to tubulin from the same sample, and levels in immature oocytes (Imm) arbitrarily set to 1.0. The bar graph of FIG. 1B represents data from 3 independent experiments with S.E.M. (Student's t-test; p<0.01).

SMILES | effect on initial polyadenylation or translation of the Mos mRNA (Mos mRNA; oocytes treated with MAP kinase signaling inhibitor) | effect on progesterone-stimulated Musashi S322 phosphorylation ([1]; oocytes expressing GST-Musashi1, progesterone stimulated) | time at which Mos mRNA polyadenylation initiates after progesterone stimulation (Mos mRNA; oocytes expressing GST-Musashi) | maximum progesterone-induced change in phospho-Musashi1 levels normalized to tubulin, relative to immature oocytes ([1]; uninjected oocytes, endogenous Musashi1, n=4, p<0.05) | Musashi protein levels in response to progesterone stimulation (Musashi1 protein)
N#CC(=C(/N)Sc1ccccc1N)/C(C#N)=C(/N)Sc1ccccc1N [UO126] | does not prevent | significant attenuation |  |  | 
CC(=O)[C@H]1CC[C@H]2[C@@H]3CCC4=CC(=O)CC[C@]4(C)[C@H]3CC[C@]12C [progesterone] |  |  | approximately 3 hours | 1.25+/−0.11 fold | increase
